From US20150245612A1, “ACTIVE INGREDIENT FOR CONTROLLING SPIDER MITES” (BAYER CROPSCIENCE AG, priority 2014, published 2015)

Tests used:
Assay type in all cases: in vivo
Eutetranychus anneckei = Eutetranychus anneckei test; outdoor spray treatment (EUTEOR), orange trees; details: EUTEOR on C. sinensis
Description: Eutetranychus anneckei Test; Outdoor Spray Treatment (EUTEOR)
(§1) To produce an appropriate active ingredient formulation, 1 part by weight of active ingredient is mixed with the stated amounts of water to the desired concentration. Added to the spray liquor is 0.1% a.i. Crovol.
(§2) Three two-year-old orange trees (Citrus sinensis) affected by all stages of the oriental spider mite (Eutetranychus anneckei) are sprayed with an active ingredient formulation of each desired concentration. Application is effected with a motorized backpack sprayer. In accordance with common practice, the water application rate is 1000 l/Ha. One spray application is conducted in each case.
(§3) After the desired time, the remaining mites per leaf are counted and calculated as the efficacy by the Abbott formula:
(§4) B=treated plots K=untreated control plots

Phyllocoptruta oleivora = Phyllocoptruta oleivora test; outdoor spray treatment (PHYUOL), orange trees; details: PHYUOL on C. sinensis
Description: Phyllocoptruta oleivora Test; Outdoor Spray Treatment (PHYUOL)
as §1
as §2, with “15-year-old” for “two-year-old”, “citrus rust” for “oriental spider”, “(Phyllocoptruta oleivora)” for “(Eutetranychus anneckei)”
as §3, §4

Panonychus citri [1] = test: Panonychus citri test; outdoor spray treatment (METTCI), lemon trees; details: METTCI on C. limon
Description: (§5) Panonychus citri Test; Outdoor Spray Treatment (METTCI)
as §1
as §2, with “lemon” for “orange”, “limon)” for “sinensis)”, “citrus red” for “oriental spider”, “(Panonychus citri)” for “(Eutetranychus anneckei)”
as §3, §4

Panonychus citri [2] = test: Panonychus citri test; outdoor spray treatment (METTCI), orange trees; details: METTCI on C. sinensis
Description: Panonychus citri test; outdoor spray treatment (METTCI)
To produce an appropriate active ingredient formulation, 1 part by weight of active ingredient is mixed with the stated amounts of water to the desired concentration. Added to the spray liquor is 0.1% a.i. rapeseed oil methyl ester.
as §2, with “citrus red” for “oriental spider”, “(Panonychus citri)” for “(Eutetranychus anneckei)”
as §3, §4

Brevipalpus phoenicis = Brevipalpus phoenicis test; outdoor spray treatment (BRVPPH), orange trees; details: BRVPPH on C. sinensis
Description: Brevipalpus phoenicis Test; Outdoor Spray Treatment (BRVPPH)
as §1
as §2, with “eight-year-old” for “two-year-old”, “false” for “oriental”, “(Brevipalpus phoenicis)” for “(Eutetranychus anneckei)”
as §3, §4

Panonychus citri [3] = test: Panonychus citri test; outdoor spray treatment (METTCI), satsuma trees; details: METTCI on C. unshiu
Description: as §5, §1
as §2, with “5-year-old satsuma” for “two-year-old orange”, “unshiu)” for “sinensis)”, “citrus red” for “oriental spider”, “(Panonychus citri)” for “(Eutetranychus anneckei)”, “1850” for “1000”
as §3, §4

[4] = 100 g ai/ha/mch, + Crovol 0.1%, 7 Dat
[5] = 100 g ai/ha/mch, + Crovol 0.1%, 14 Dat

Cn1nc(C(F)(F)C(F)(F)F)c(C(F)(F)F)c1C(=O)Nc1ccc(Cl)c(C(=O)NCc2ccccc2)c1 [Compound (I)]
Efficacy (% Abbott) (Eutetranychus anneckei; 100 g ai/ha/mch, + Crovol 0.1%, 8 Dat): 99 % Abbott
Efficacy (% Abbott) (Eutetranychus anneckei; 100 g ai/ha/mch, + Crovol 0.1%, 16 Dat): 99 % Abbott
Efficacy (% Abbott) (Eutetranychus anneckei; 100 g ai/ha/mch, + Crovol 0.1%, 22 Dat): 100 % Abbott
Efficacy (% Abbott) (Eutetranychus anneckei; 100 g ai/ha/mch, + Crovol 0.1%, 30 Dat): 98 % Abbott
Efficacy (% Abbott) (Eutetranychus anneckei; 100 g ai/ha/mch, + Crovol 0.1%, 36 Dat): 93 % Abbott
Efficacy (% Abbott) (Phyllocoptruta oleivora; 75 g ai/ha/mch, + Crovol 0.1%, 5 Dat): 36 % Abbott
Efficacy (% Abbott) (Phyllocoptruta oleivora; 75 g ai/ha/mch, + Crovol 0.1%, 13 Dat): 45 % Abbott
Efficacy (% Abbott) (Phyllocoptruta oleivora; 75 g ai/ha/mch, + Crovol 0.1%, 19 Dat): 64 % Abbott
Efficacy (% Abbott) (Phyllocoptruta oleivora; 75 g ai/ha/mch, + Crovol 0.1%, 27 Dat): 72 % Abbott
Efficacy (% Abbott) (Phyllocoptruta oleivora; 100 g ai/ha/mch, + Crovol 0.1%, 5 Dat): 77 % Abbott
Efficacy (% Abbott) (Phyllocoptruta oleivora; 100 g ai/ha/mch, + Crovol 0.1%, 13 Dat): 84 % Abbott
Efficacy (% Abbott) (Phyllocoptruta oleivora; 100 g ai/ha/mch, + Crovol 0.1%, 19 Dat): 94 % Abbott
Efficacy (% Abbott) (Phyllocoptruta oleivora; 100 g ai/ha/mch, + Crovol 0.1%, 27 Dat): 96 % Abbott
Efficacy (% Abbott) (Panonychus citri [1]; 100 g ai/ha/mch, + Crovol 0.1%, 6 Dat): 90 % Abbott
Efficacy (% Abbott) (Panonychus citri [1]; 100 g ai/ha/mch, + Crovol 0.1%, 23 Dat): 99 % Abbott
Efficacy (% Abbott) (Panonychus citri [2]; 50 g ai/ha/mch, + RME 0.1%, 1 Dat): 85 % Abbott
Efficacy (% Abbott) (Panonychus citri [2]; 50 g ai/ha/mch, + RME 0.1%, 5 Dat): 99 % Abbott
Efficacy (% Abbott) (Panonychus citri [2]; 100 g ai/ha/mch, + RME 0.1%, 1 Dat): 99 % Abbott
Efficacy (% Abbott) (Panonychus citri [2]; 100 g ai/ha/mch, + RME 0.1%, 5 Dat): 100 % Abbott
Efficacy (% Abbott) (Brevipalpus phoenicis; 100 g ai/ha/mch, + Crovol 0.1%, 3 Dat): 88.4 % Abbott
Efficacy (% Abbott) (Brevipalpus phoenicis; [4]): 95 % Abbott
Efficacy (% Abbott) (Brevipalpus phoenicis; [5]): 100 % Abbott
Efficacy (% Abbott) (Brevipalpus phoenicis; 100 g ai/ha/mch, + Crovol 0.1%, 21 Dat): 100 % Abbott
Efficacy (% Abbott) (Brevipalpus phoenicis; 100 g ai/ha/mch, + Crovol 0.1%, 49 Dat): 92.7 % Abbott
Efficacy (% Abbott) (Brevipalpus phoenicis; 100 g ai/ha/mch, + Crovol 0.1%, 60 Dat): 100 % Abbott
Efficacy (% Abbott) (Panonychus citri [3]; 100 g ai/ha/mch, + Crovol 0.1%, 4 Dat): 100 % Abbott
Efficacy (% Abbott) (Panonychus citri [3]; [4]): 98.1 % Abbott
Efficacy (% Abbott) (Panonychus citri [3]; [5]): 97.6 % Abbott

Cc1nn(C)c(/C(OC(=O)C(C)(C)C)=C(\C#N)c2ccc(C(C)(C)C)cc2)c1C [Cyenopyrafen, reference compound]
Efficacy (% Abbott) (Eutetranychus anneckei; 150 g ai/ha/mch, 8 Dat): 100 % Abbott
Efficacy (% Abbott) (Eutetranychus anneckei; 150 g ai/ha/mch, 16 Dat): 96 % Abbott
Efficacy (% Abbott) (Eutetranychus anneckei; 150 g ai/ha/mch, 22 Dat): 100 % Abbott
Efficacy (% Abbott) (Eutetranychus anneckei; 150 g ai/ha/mch, 30 Dat): 83 % Abbott
Efficacy (% Abbott) (Eutetranychus anneckei; 150 g ai/ha/mch, 36 Dat): 63 % Abbott
Efficacy (% Abbott) (Phyllocoptruta oleivora; 150 g ai/ha/mch, 5 Dat): 32 % Abbott
Efficacy (% Abbott) (Phyllocoptruta oleivora; 150 g ai/ha/mch, 13 Dat): 29 % Abbott
Efficacy (% Abbott) (Phyllocoptruta oleivora; 150 g ai/ha/mch, 19 Dat): 31 % Abbott
Efficacy (% Abbott) (Phyllocoptruta oleivora; 150 g ai/ha/mch, 27 Dat): 32 % Abbott
Efficacy (% Abbott) (Brevipalpus phoenicis; 150 g ai/ha/mch, 3 Dat): 74.4 % Abbott
Efficacy (% Abbott) (Brevipalpus phoenicis; 150 g ai/ha/mch, 7 Dat): 92.5 % Abbott
Efficacy (% Abbott) (Brevipalpus phoenicis; 150 g ai/ha/mch, 14 Dat): 94.7 % Abbott
Efficacy (% Abbott) (Brevipalpus phoenicis; 150 g ai/ha/mch, 21 Dat): 100 % Abbott
Efficacy (% Abbott) (Brevipalpus phoenicis; 150 g ai/ha/mch, 49 Dat): 78 % Abbott
Efficacy (% Abbott) (Brevipalpus phoenicis; 150 g ai/ha/mch, 60 Dat): 97.6 % Abbott

CCC(C)(C)C(=O)OC1=C(c2ccc(Cl)cc2Cl)C(=O)OC12CCCCC2 [Spirodiclofen, reference compound]
Efficacy (% Abbott) (Panonychus citri [1]; 48 g ai/ha/mch, 6 Dat): 58 % Abbott
Efficacy (% Abbott) (Panonychus citri [1]; 48 g ai/ha/mch, 23 Dat): 100 % Abbott
Efficacy (% Abbott) (Panonychus citri [2]; 48 g ai/ha/mch, 1 Dat): 29 % Abbott
Efficacy (% Abbott) (Panonychus citri [2]; 48 g ai/ha/mch, 5 Dat): 90 % Abbott
Efficacy (% Abbott) (Panonychus citri [3]; 144 g ai/ha/mch, 4 Dat): 70.7 % Abbott
Efficacy (% Abbott) (Panonychus citri [3]; 144 g ai/ha/mch, 7 Dat): 85.2 % Abbott
Efficacy (% Abbott) (Panonychus citri [3]; 144 g ai/ha/mch, 14 Dat): 78 % Abbott
